# Legend:
# Assay type in all cases: in vivo
# [1] = tested on: obese Beagle dogs; assay: 4 w-4 w-4 w intermittent dosing regimen study; details: 4 w-4 w-4 w regimen, 0.63 mg/kg oral once daily
# Experimental: Mitratapide was administered for a first period of four weeks at a dosage of 0.63 mg/kg body weight, withheld for four weeks and again administered for four weeks at a dosage of 0.63 mg/kg body weight. At day 29, the feeding was restricted from ad libitum access to food, to a maintenance diet having a caloric content equal to the caloric expenditure of the test subject.
# The effect of a 4 w-4 w-4 w intermittent dosing regimen on 15 obese Beagle dogs, with a body weight of 16% or more above optimal body weight, was studied. The dogs were treated with mitratapide oral solution at a daily single dose of 0.63 mg/kg body weight for two periods of 28 consecutive days (4 weeks) with an intermediate period of 28 consecutive days without treatment.
# The test formulation comprising mitratapide was an aqueous 10% hydroxypropyl-β-cyclodextrin solution containing 2.5 mg mitratapide per ml and was administered once daily in an amount of 1 ml per 4 kg body weight. The daily dose was mixed into a small portion of feed and presented to the dog. The rest of the feed was only provided after this portion was consumed. […] The test solution comprising mitratapide was no longer administered and the body weight of the animals was further monitored during the follow-up procedure ending on day 112. […] Body weight of each test animal was measured on days 0, 14, 28, 42, 56, 84 and 112. […]
# [2] = tested on: obese Beagle dogs; assay: Efficacy study with continuous administration of mitratapide during 8 weeks; details: oral
# Experimental: FIG. 1 is a graph displaying the results of an efficacy study wherein the apoB secretion/MTP inhibitor mitratapide was administered during 8 weeks to a group of obese Beagle dogs. The four curves illustrate the effect on body weight by plotting the ‘(%) body weight relative to the weight at the start’ when mitratapide was administered with a dosage of 0 mg per kg body weight (A curve), 0.16 mg per kg body weight (B curve), 0.31 mg per kg body weight (C curve) and 0.63 mg per kg body weight in function of the duration of the study.
# The efficacy of the apoB secretion/MTP inhibitor mitratapide for the reduction of body weight was studied in a blind, randomised study with 4 parallel groups of 6 dogs each. Three groups were treated orally with three different doses of mitratapide and one group was treated orally with the vehicle and served as a placebo group. The vehicle solution contained the same ingredients as the test formulations with omission of the test substance mitratapide.
# The treatment groups were:
# placebo group A treated orally with vehicle
# group B treated orally with 0.16 mg mitratapide per kg body weight
# group C treated orally with 0.31 mg mitratapide per kg body weight
# group D treated orally with 0.63 mg mitratapide per kg body weight
# The test subjects were healthy, male Beagle dogs with a body weight of 13.6 to 22.6 kg at the start of the experiment and between 1 and 8 years old. All dogs were treated orally using a 5 ml syringe, once daily, in the morning for a period of 8 weeks (56 days) depending on their body weight. Body weight was measured once weekly on days 0, 7, 14, 21, . . . up to day 56. The volume of test formulation was 1 ml per 4 kg body weight. The test formulation was an aqueous 10% hydroxypropyl-β-cyclodextrin solution containing no mitratapide, 0.63 mg mitratapide per ml, 1.25 mg mitratapide per ml or 2.5 mg mitratapide per ml. Each test subject had free access (in volume and time) to commercial dog feed (Bento Kronen Professional Power) and water during the 8 week study. […]
# [3] = tested on: obese Beagle dogs; assay: Comparison of 3 w-2 w-3 w and 4 w-4 w-4 w dosing regimen; details: 0.63 mg/kg oral gavage once daily
# Experimental: Thirty two healthy obese Beagle dogs of both sexes were included in a study of two different intermittent treatment regimens: a 3 w-2 w-3 w regimen and a 4 w-4 w-4 w regimen. At the start of the study, the dogs weighed between 12.5 and 26 kg which was considered as being more than 20% higher than the ideal body weight. The study was conducted in four groups, two treated groups containing 10 obese Beagle dogs and one placebo group containing 12 obese Beagle dogs. This placebo group of 12 dogs was subdivided in two sets of 6 dogs. One placebo group followed the 3 w-2 w-3 w regimen and the other placebo group the 4 w-4 w-4 w regimen.
# The test compound mitratapide was provided as a polyethylene glycol 400 (PEG 400) solution comprising 5 mg mitratapide per ml. The test solution was administered once daily in the morning by oral gavage. The volume of test formulations was 0.125 ml per kg body weight so that mitratapide was administered with a dosage of 0.63 mg/kg body weight. The body weight was measured weekly during the treatment periods to adjust the amount of test formulation. The placebo groups received water as the test formulation. Each test subject had free access (in volume and time) to commercial dog feed (Bento Kronen premium Regular dog pellets) during the first administration period. The first administration period was followed by a period during which administration of mitratapide was withheld. At the same time, the dogs were put on a maintenance diet having a caloric content equal to their caloric expenditure. […] At the start of the second administration period, the dogs were again administered a mitratapide solution with a dosage of 0.63 mg/kg body weight. The dogs were kept on the same maintenance diet as during the previous period. All dogs had free access to drinking water throughout the entire study. Body weight of each test animal was measured weekly on days 0, 7, 14, 21 and so on till day 84. The effect on body weight for each of the four dosage studies is plotted in FIG. 3. […] The reduction of body weight of the two placebo groups was less than 2% after 84 days.
structure (smiles),measurement,setting,value
"CCC(C)n1ncn(-c2ccc(N3CCN(c4ccc(OCC5COC(CSc6nncn6C)(c6ccc(Cl)cc6)O5)cc4)CC3)cc2)c1=O (stereo not drawn) [mitratapide, (−)-[2S-[2α, 4α(S*)]]-4-[4-[4-[4-[[2-(4-chlorophenyl)-2-[[(4-methyl-4H-1,2,4-triazol-3-yl)thio]methyl]-1,3-dioxolan-4-yl]methoxy]-phenyl]-1-piperazinyl]phenyl]-2,4-dihydro-2-(1-methylpropyl)-3H-1,2,4-triazol-3-one]",mean reduction of body weight,"[1]; maintenance diet from the second period, after 84 days",9%
same,course of body weight reduction (levelling off),[1]; two treatment periods,no body weight reduction levelling off effect was observed
same,effect on body weight at 0.63 mg/kg compared with lower dose,"[2]; 0.63 mg/kg once daily for 8 weeks, free access to feed",more effective in reducing body weight
same,course of body weight reduction (levelling off),"[2]; 0.63 mg/kg once daily, continuous for 8 weeks (curve D)",started to level off after three weeks
same,daily dosage necessary to decrease body weight,"[2]; once daily for 8 weeks (56 days), free access to feed, doses 0.16, 0.31, 0.63 mg/kg tested",at least 0.31 mg/kg
same,course of body weight reduction (levelling off),[3]; 3 w-2 w-3 w and 4 w-4 w-4 w regimens,no body weight reduction levelling off effect was observed
same,mean effect on body weight reduction,"[3]; 3 w-2 w-3 w regimen, day 56",11%
same,mean effect on body weight reduction,"[3]; 4 w-4 w-4 w regimen, day 84",13%
